# Patent publication US6737383B1, “Herbicidal oxadiazolidines” (priority 1999, dated 2004)
# Tests used:
# surinam grass = test: Test B pre/postemergence surinam grass; type: in vivo, Brachiaria decumbens
# How it was run: (§1)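 Herbicidal effect was estimated by eye on a ten-point control scale after plants spent twelve to sixteen days in a greenhouse following soil or foliar treatment. Foliar sprays targeted plants at one to four leaves; all doses were formulated in a non-phytotoxic solvent with surfactant.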
# wild oat = test: Test B pre/postemergence wild oat; type: in vivo, Avena fatua
# How it was run: as §1
# sugar beet = test: Test B pre/postemergence sugar beet; type: in vivo, Beta vulgaris
# How it was run: as §1
# bedstraw = test: Test B pre/postemergence bedstraw; type: in vivo, Galium aparine
# How it was run: as §1
# corn = test: Test B pre/postemergence corn; type: in vivo, Zea mays
# How it was run: as §1
# morningglory = test: Test B pre/postemergence morningglory; type: in vivo, Ipomoea hederacea
# How it was run: as §1
# soybean = test: Test B pre/postemergence soybean; type: in vivo, Glycine max
# How it was run: as §1
# crabgrass = test: Test B pre/postemergence crabgrass; type: in vivo, Digitaria sanguinalis
# How it was run: as §1
# cocklebur = test: Test B pre/postemergence cocklebur; type: in vivo, Xanthium strumarium
# How it was run: as §1
# pigweed = test: Test B pre/postemergence pigweed; type: in vivo, Amaranthus retroflexus
# How it was run: as §1
# rape = test: Test B pre/postemergence rape; type: in vivo, Brassica napus
# How it was run: as §1
# purple nutsedge = test: Test B pre/postemergence purple nutsedge; type: in vivo, Cyperus rotundus
# How it was run: as §1
# wheat = test: Test B pre/postemergence wheat; type: in vivo, Triticum aestivum
# How it was run: as §1
# blackgrass = test: Test B pre/postemergence blackgrass; type: in vivo, Alopecurus myosuroides
# How it was run: as §1
# giant foxtail = test: Test B pre/postemergence giant foxtail; type: in vivo, Setaria faberii
# How it was run: as §1
# velvetleaf = test: Test B pre/postemergence velvetleaf; type: in vivo, Abutilon theophrasti
# How it was run: as §1
# [1] = Postemergence, Rate 62 g/ha, scale 0 to 10, 0 is no effect, 10 is complete control
# [2] = Postemergence, Rate 125 g/ha, scale of 0 to 10 where 0 is no effect and 10 is complete control
# [3] = Preemergence, Rate 250 g/ha, scale 0 (no effect) to 10 (complete control)
# [4] = Rate 125 g/ha, Preemergence, scale 0 to 10 (0 no effect, 10 complete control)
# [5] = Rate 250 g/ha, Postemergence, scale 0 to 10, 0 is no effect, 10 is complete control
# [6] = Rate 500 g/ha, Preemergence, scale 0 to 10 (0 no effect, 10 complete control)
# [7] = Postemergence, Rate 500 g/ha, scale 0 (no effect) to 10 (complete control)
# [8] = Rate 62 g/ha, Preemergence, scale 0 to 10
structure (smiles),measurement,setting,value
C#CC(C)n1c(=O)on(C(=O)N(c2ccc(F)cc2)C(C)C)c1=O (stereo not shown) [Compound 763],"Plant response rating, B. signalgrass",surinam grass; [1],0
same,B. signalgrass plant response rating,surinam grass; [2],3
same,B. signalgrass plant response rating,"surinam grass; Preemergence, Rate 62 g/ha, scale of 0 to 10 where 0 is no effect and 10 is complete control",0
same,B. signalgrass plant response rating,surinam grass; [3],9
same,B. signalgrass plant response rating,surinam grass; [4],9
same,B. signalgrass plant response rating,surinam grass; [5],5
same,B. signalgrass plant response rating,"surinam grass; Rate 500 g/ha, Postemergence, scale 0 to 10, 0 is no effect, 10 is complete control",5
same,B. signalgrass plant response rating,surinam grass; [6],8
same,"Plant response rating, Wild oats",wild oat; [1],0
same,Wild oats plant response rating,wild oat; [7],1
same,Wild oats plant response rating,wild oat; [3],9
same,Wild oats plant response rating,wild oat; [8],2
same,Wild oats plant response rating,wild oat; [4],8
same,Wild oats plant response rating,wild oat; [6],9
same,"Plant response rating, Sugarbeets",sugar beet; [1],0
same,Sugarbeets plant response rating,sugar beet; [7],4
same,Sugarbeets plant response rating,sugar beet; [3],3
same,Sugarbeets plant response rating,sugar beet; [8],0
same,Sugarbeets plant response rating,sugar beet; [4],0
same,Sugarbeets plant response rating,sugar beet; [5],2
same,Sugarbeets plant response rating,sugar beet; [6],6
same,Bedstraw plant response rating,bedstraw; [2],0
same,Bedstraw plant response rating,bedstraw; [7],4
same,Bedstraw plant response rating,bedstraw; [3],7
same,Bedstraw plant response rating,bedstraw; [8],0
same,Bedstraw plant response rating,bedstraw; [4],6
same,Bedstraw plant response rating,bedstraw; [6],8
same,"Plant response rating, Corn",corn; [1],0
same,Corn plant response rating,corn; [2],0
same,Corn plant response rating,corn; [7],2
same,Corn plant response rating,corn; [3],0
same,Corn plant response rating,corn; [8],0
same,Corn plant response rating,corn; [4],0
same,Corn plant response rating,corn; [5],0
same,Corn plant response rating,corn; [6],0
same,"Plant response rating, Morningglory",morningglory; [1],2
same,Morningglory plant response rating,morningglory; [2],7
same,Morningglory plant response rating,morningglory; [7],7
same,Morningglory plant response rating,morningglory; [3],0
same,Morningglory plant response rating,morningglory; [8],0
same,Morningglory plant response rating,morningglory; [4],0
same,Morningglory plant response rating,morningglory; [5],7
same,Morningglory plant response rating,morningglory; [6],5
same,"Plant response rating, Soybean",soybean; [1],2
same,Soybean plant response rating,soybean; [7],5
same,Soybean plant response rating,soybean; [3],0
same,Soybean plant response rating,soybean; [8],0
same,Soybean plant response rating,soybean; [4],0
same,Soybean plant response rating,soybean; [5],3
same,Soybean plant response rating,soybean; [6],0
same,"Plant response rating, Crabgrass",crabgrass; [1],2
same,Crabgrass plant response rating,crabgrass; [2],5
same,Crabgrass plant response rating,crabgrass; [7],9
same,Crabgrass plant response rating,crabgrass; [3],10
same,Crabgrass plant response rating,crabgrass; [8],9
same,Crabgrass plant response rating,crabgrass; [4],9
same,Crabgrass plant response rating,crabgrass; [5],8
same,Crabgrass plant response rating,crabgrass; [6],9
same,"Plant response rating, Cocklebur",cocklebur; [1],0
same,Cocklebur plant response rating,cocklebur; [2],0
same,Cocklebur plant response rating,cocklebur; [7],3
same,Cocklebur plant response rating,cocklebur; [3],0
same,Cocklebur plant response rating,cocklebur; [8],0
same,Cocklebur plant response rating,cocklebur; [4],0
same,Cocklebur plant response rating,cocklebur; [5],1
same,Cocklebur plant response rating,cocklebur; [6],0
same,"Plant response rating, Redroot pigweed",pigweed; [1],0
same,Redroot pigweed plant response rating,pigweed; [2],0
same,Redroot pigweed plant response rating,pigweed; [7],8
same,Redroot pigweed plant response rating,pigweed; [3],10
same,Redroot pigweed plant response rating,pigweed; [8],8
same,Redroot pigweed plant response rating,pigweed; [4],9
same,Redroot pigweed plant response rating,pigweed; [5],3
same,Redroot pigweed plant response rating,pigweed; [6],10
same,"Plant response rating, Rape",rape; [1],0
same,Rape plant response rating,rape; [2],0
same,Rape plant response rating,rape; [7],3
same,Rape plant response rating,rape; [3],6
same,Rape plant response rating,rape; [8],0
same,Rape plant response rating,rape; [4],5
same,Rape plant response rating,rape; [5],0
same,Rape plant response rating,rape; [6],9
same,"Plant response rating, Nutsedge",purple nutsedge; [1],0
same,Nutsedge plant response rating,purple nutsedge; [2],0
same,Nutsedge plant response rating,purple nutsedge; [7],6
same,Nutsedge plant response rating,purple nutsedge; [8],0
same,Nutsedge plant response rating,purple nutsedge; [5],3
same,Nutsedge plant response rating,purple nutsedge; [6],5
same,"Plant response rating, Wheat",wheat; [1],0
same,Wheat plant response rating,wheat; [7],3
same,Wheat plant response rating,wheat; [3],5
same,Wheat plant response rating,wheat; [8],0
same,Wheat plant response rating,wheat; [4],0
same,Wheat plant response rating,wheat; [5],4
same,Wheat plant response rating,wheat; [6],7
same,"Plant response rating, Blackgrass",blackgrass; [1],5
same,Blackgrass plant response rating,blackgrass; [2],5
same,Blackgrass plant response rating,blackgrass; [7],5
same,Blackgrass plant response rating,blackgrass; [3],9
same,Blackgrass plant response rating,blackgrass; [8],8
same,Blackgrass plant response rating,blackgrass; [4],9
same,Blackgrass plant response rating,blackgrass; [5],5
same,Blackgrass plant response rating,blackgrass; [6],10
same,"Plant response rating, Giant foxtail",giant foxtail; [1],6
same,Giant foxtail plant response rating,giant foxtail; [2],8
same,Giant foxtail plant response rating,giant foxtail; [7],9
same,Giant foxtail plant response rating,giant foxtail; [3],9
same,Giant foxtail plant response rating,giant foxtail; [8],9
same,Giant foxtail plant response rating,giant foxtail; [4],9
same,Giant foxtail plant response rating,giant foxtail; [5],9
same,Giant foxtail plant response rating,giant foxtail; [6],9
same,"Plant response rating, Velvetleaf",velvetleaf; [1],0
same,Velvetleaf plant response rating,velvetleaf; [7],2
same,Velvetleaf plant response rating,velvetleaf; [3],1
same,Velvetleaf plant response rating,velvetleaf; [8],0
same,Velvetleaf plant response rating,velvetleaf; [4],1
same,Velvetleaf plant response rating,velvetleaf; [5],0
same,Velvetleaf plant response rating,velvetleaf; [6],3
